Laboratory results from patent publication US20230303575A1, “FGFR AND MUTATION INHIBITOR THEREOF, PREPARATION METHOD THEREFOR AND USE THEREOF” (Abbisko Therapeutics Co., Ltd., priority 2020, published 2023).

Columns and labels:
[1] = biological target: T1, FGFR2 V564F (Homo sapiens, UniProt P21802, V564F); test: Cell proliferation assay for Tel-FGFR2 V564F in BaF3; assay type: cell-based; conditions: BaF3 cells expressing FGFR2 V564F fusion, 48 hrs, CellTiter Glo
T1 construct: P41212 (Transcription factor ETV6)
Description: By transfection, cell strains of the intracellular kinase domain fusion protein of TEL-FGFR2 WT or the intracellular domain fusion proteins containing FGFR2 V564, V564F, V564L, N549K and K659M mutations were stably expressed in Baf cells. On day 1, the cell suspension was plated into a 96-well plate containing growth medium (DMEM containing 1% Glutamax, 10% FBS and 1% Pen/Strep) at 2000-4000 cells/90 μL/per well, and then the mixture was incubated overnight at 37° C. and 5% CO2. On day 2, 10 μL of growth medium containing a 10-fold stock solution of test compound was added to the cell culture (9 dose points, 3× serial dilution, starting from 1 μM, finally 0.3% DMSO). After incubation at 37° C. and 5% CO2 for 48 hrs, 50 μL of CellTiter Glo (CTG) reagent was added to the cell-containing 96-well plate on day 3, and the plate was then incubated at room temperature for 10 min. Then relative light units (RLUs) were measured on a microplate reader with a luminescence detection module. RLU values were normalized to % survival, and concentration-response curves were plotted using Prism to calculate IC50 (nM).

[2] = biological target: T2, FGFR3 V555M (Homo sapiens, UniProt P22607, V555M); test: Cell proliferation assay for FGFR3 V555M in BaF3; assay type: cell-based; conditions: BaF3 cells expressing FGFR3 V555M fusion, 48 hrs, CellTiter Glo
T2 construct: P41212 (Transcription factor ETV6)
Description: For the compounds of the Examples of the present invention, cell strains of TEL-FGFR3 WT intracellular kinase domain fusion protein or intracellular domain fusion protein containing FGFR3 V555M or FGFR3 N540K mutation were stably expressed in Baf cells by transfection and were used to determine the cell proliferation effect of BaF3-Tel-FGFR3 WT. FGFR3 V555M or FGFR3 N540K. The specific test process was as follows: • 1) The cell suspension was plated into a 96-well plate containing growth medium (DMEM containing 1% Glutamax, 10% FBS and 1% Pen/Strep) at 2000-4000 cells/90 μL/per well, and then the mixture was incubated overnight at 37° C. and 5% CO2. • 2) 10 μL of growth medium containing a 10-fold stock solution of test compound was added to the cell culture (9 dose points, 3× serial dilution, starting from 1 μM, finally 0.3% DMSO). • 3) The mixture was incubated at 37° C. and 5% CO2 for 48 hrs. • 4) 50 μL of CellTiter Glo (CTG) reagent was added to the cell-containing 96-well plate, and the plate was then incubated at room temperature for 10 min. • 5) Relative light units (RLUs) were measured on a microplate reader with a luminescence detection module. RLU values were normalized to % survival, and concentration-response curves were plotted using Prism to calculate IC50 (nM).

T1 sequence (P21802 481-770 V564F limits assumed): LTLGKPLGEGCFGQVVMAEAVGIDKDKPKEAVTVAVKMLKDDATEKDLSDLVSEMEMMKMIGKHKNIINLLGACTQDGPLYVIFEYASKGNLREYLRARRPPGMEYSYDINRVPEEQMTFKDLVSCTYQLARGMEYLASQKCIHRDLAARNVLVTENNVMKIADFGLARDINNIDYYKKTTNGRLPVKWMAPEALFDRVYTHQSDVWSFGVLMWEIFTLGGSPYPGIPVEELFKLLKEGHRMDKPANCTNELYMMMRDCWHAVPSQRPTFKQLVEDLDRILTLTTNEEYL
T2 sequence (P22607 472-761 V555M limits assumed): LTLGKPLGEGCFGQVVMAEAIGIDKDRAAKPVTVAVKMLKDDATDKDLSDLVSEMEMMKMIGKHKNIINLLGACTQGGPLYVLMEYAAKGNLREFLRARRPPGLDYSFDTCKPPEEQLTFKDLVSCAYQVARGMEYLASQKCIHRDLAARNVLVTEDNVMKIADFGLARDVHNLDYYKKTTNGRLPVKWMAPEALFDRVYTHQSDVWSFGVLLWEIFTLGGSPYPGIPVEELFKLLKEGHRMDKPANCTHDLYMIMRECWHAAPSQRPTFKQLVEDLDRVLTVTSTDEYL

IC50 [1] [nM]	IC50 [2] [nM]	Structure (SMILES)
5 to 50	50 to 500	C=CC(=O)N1CC[C@H](n2cc(C#Cc3cc4nc(C(F)(F)F)oc4cc3F)c3c(N)ncnc32)C1 [Example 72, (S)-1-(3-(4-amino-5-((6-fluoro-2-(trifluoromethyl)benzo[d]oxazol-5-yl)ethynyl)-7H-pyrrolo[2,3-d]pyrimidin-7-yl)pyrrolidin-1-yl) prop-2-en-1-one]
0.5 to 5	–	C=CC(=O)N1CC[C@H](n2nc(C#Cc3ccc4oc(C5(C)CC5)nc4c3)c3c(N)ncnc32)C1 [Example 39, (S)-1-(3-(4-amino-3-((2-(1-methylcyclopropyl)benzo [d]oxazol-5-yl)ethynyl)-1H-pyrazolo[3,4-d]pyrimidin-1-yl)pyrrolidin-1-yl) prop-2-en-1-one]
0.5 to 5	5 to 50	C=CC(=O)N1CC[C@H](n2cc(C#Cc3cc4nc(C(F)F)sc4cc3F)c3c(N)ncnc32)C1 [Example 50, (S)-1-(3-(4-amino-5-((2-(difluoromethyl)-6-fluoro-benzo[d]thiazol-5-yl)ethynyl)-7H-pyrrolo[2,3-d]pyrimidin-7-yl)pyrrolidin-1-yl) prop-2-en-1-one]
≤ 0.5	0.5 to 5	C=CC(=O)N1CC[C@H](n2cc(C#Cc3c(F)cc4oc(N5CCC5)nc4c3F)c3c(N)ncnc32)C1 [Example 73, (S)-1-(3-(4-amino-5-((2-(azetidin-1-yl)-4,6-difluoro-benzo[d]oxazol-5-yl)ethynyl)-7H-pyrrolo[2,3-d]pyrimidin-7-yl)pyrrolidin-1-yl) prop-2-en-1-one]
0.5 to 5	–	C=CC(=O)N1CC[C@H](n2nc(C#Cc3cc4nc(C(F)F)sc4cc3F)c3c(N)ncnc32)C1 [Example 60, (S)-1-(3-(4-amino-3-((2-(difluoromethyl)-6-fluoro-benzo[d]thiazol-5-yl)ethynyl)-1H-pyrazolo[3,4-d]pyrimidin-1-yl)pyrrolidin-1-yl)prop-2-en-1-one]
≤ 0.5	5 to 50	C=CC(=O)N1CC[C@H](n2cc(C#Cc3cc4nc(C)sc4cc3F)c3c(N)ncnc32)C1 [Example 47, (S)-1-(3-(4-amino-5-((6-fluoro-2-methylbenzo[d]thiazol-5-yl)ethynyl)-7H-pyrrolo[2,3-d]pyrimidin-7-yl)pyrrolidin-1-yl)prop-2-en-1-one]
0.5 to 5	–	C=CC(=O)N1CCC(c2cc(C#Cc3ccc4sc(C)nc4c3)c3c(N)ncnn23)C1 (stereo not drawn) [Example 70, 1-(3-(4-amino-5-((2-methyl-benzo[d]thiazol-5-yl)ethynyl)pyrrolo[2,1-f][1,2,4]triazin-7-yl)pyrrolidin-1-yl) prop-2-en-1-one]
≤ 0.5	0.5 to 5	C=CC(=O)N1CC[C@H](n2cc(C#Cc3cc4nc(C5CC5)oc4cc3F)c3c(N)ncnc32)C1 [Example 65, (S)-1-(3-(4-amino-5-((2-cyclopropyl-6-fluorobenzo [d]oxazol-5-yl)ethynyl)-7H-pyrrolo[2,3-d]pyrimidin-7-yl)pyrrolidin-1-yl)prop-2-en-1-one]
–	50 to 500	C=CC(=O)N1CC[C@H](n2cc(C#Cc3ccc4oc(C(F)(F)F)nc4c3)c3c(N)ncnc32)C1 [Example 76, (S)-1-(3-(4-amino-5-((2-(trifluoromethyl)benzo[d]oxazol-5-yl)ethynyl)-7H-pyrrolo[2,3-d]pyrimidin-7-yl)pyrrolidin-1-yl)prop-2-en-1-one]
0.5 to 5	5 to 50	C=CC(=O)N1CCC(c2cc(C#Cc3ccc4oc(C5CC5)nc4c3)c3c(N)ncnn23)C1 (stereo not drawn) [Example 63, 1-(3-(4-amino-5-((2-cyclo-propylbenzo[d]oxazol-5-yl)ethynyl)pyrrolo[2,1-f][1,2,4]triazin-7-yl)pyrrolidin-1-yl)prop-2-en-1-one]
0.5 to 5	–	C=CC(=O)N1CC[C@H](n2cc(C#Cc3ccc4sc(C5CC5)nc4c3)c3c(N)ncnc32)C1 [Example 43, (S)-1-(3-(4-amino-5-((2-cyclopropylbenzo[d]thiazol-5-yl)ethynyl)-7H-pyrrolo [2,3-d]pyrimidin-7-yl)pyrrolidin-1-yl)prop-2-en-1-one]

More lines, now with the values behind:

Structure (SMILES)	IC50 [1] [nM]	IC50 [2] [nM]
C=CC(=O)N1CC[C@H](n2nc(C#Cc3cc4nc(NCC)oc4cc3F)c3c(N)ncnc32)C1 [Example 30, (S)-1-(3-(4-amino-3-((2-(ethylamino)-6-fluorobenzo [d]oxazol-5-yl)ethynyl)-1H-pyrazolo[3,4-d]pyrimidin-1-yl)pyrrolidin-1-yl) prop-2-en-1-one]	0.5 to 5	5 to 50
C=CC(=O)N1CC[C@H](n2cc(C#Cc3ccc4oc(C5CCC5)nc4c3)c3c(N)ncnc32)C1 [Example 5, (S)-1-(3-(4-amino-5-((2-cyclobutylbenzo[d]oxazol-5-yl)ethynyl)-7H-pyrrolo [2,3-d]pyrimidin-7-yl)pyrrolidin-1-yl)prop-2-en-1-one]	0.5 to 5	–
C=CC(=O)N1CC[C@H](n2nc(C#Cc3cc4nc(C5CC5)oc4cc3F)c3c(N)ncnc32)C1 [Example 35, (S)-1-(3-(4-amino-3-((2-cyclopropyl-6-fluorobenzo [d]oxazol-5-yl)ethynyl)-1H-pyrazolo[3,4-d]pyrimidin-1-yl)pyrrolidin-1-yl) prop-2-en-1-one]	≤ 0.5	0.5 to 5
C=CC(=O)N1CC[C@H](n2nc(C#Cc3cc4nc(NC)oc4cc3F)c3c(N)ncnc32)C1 [Example 29, (S)-1-(3-(4-amino-3-((6-fluoro-2-(methylamino)benzo[d]oxazol-5-yl)ethynyl)-1H-pyrazolo[3,4-d]pyrimidin-1-yl)pyrrolidin-1-yl) prop-2-en-1-one]	0.5 to 5	5 to 50
C=CC(=O)N1CC[C@H](n2cc(C#Cc3ccc4oc(C(C)C)nc4c3)c3c(N)ncnc32)C1 [Example 4, (S)-1-(3-(4-amino-5-((2-isopropylbenzo[d]oxazol-5-yl)ethynyl)-7H-pyrrolo[2,3-d]pyrimidin-7-yl)pyrrolidin-1-yl)prop-2-en-1-one]	0.5 to 5	–
C=CC(=O)N1CC[C@H](n2nc(C#Cc3cc4nc(NC5CC5)oc4cc3F)c3c(N)ncnc32)C1 [Example 33, (S)-1-(3-(4-amino-3-((2-(cyclopropylamino)-6-fluorobenzo[d]oxazol-5-yl)ethynyl)-1H-pyrazolo[3,4-d]pyrimidin-1-yl)pyrrolidin-1-yl)prop-2-en-1-one]	0.5 to 5	50 to 500
C=CC(=O)N1CC[C@H](n2nc(C#Cc3cc4nc(N5CCC5)oc4cc3F)c3c(N)ncnc32)C1 [Example 34, (S)-1-(3-(4-amino-3-((2-(azetidin-1-yl)-6-fluorobenzo [d]oxazol-5-yl)ethynyl)-1H-pyrazolo[3,4-d]pyrimidin-1-yl)pyrrolidin-1-yl) prop-2-en-1-one]	0.5 to 5	0.5 to 5
C=CC(=O)N1CC[C@H](n2nc(C#Cc3cc4nc(C5CCC5)oc4cc3F)c3c(N)ncnc32)C1 [Example 38, (S)-1-(3-(4-amino-3-((2-cyclobutyl-6-fluorobenzo [d]oxazol-5-yl)ethynyl)-1 H-pyrazolo[3,4-d]pyrimidin-1-yl)pyrrolidin-1-yl) prop-2-en-1-one]	0.5 to 5	5 to 50
C=CC(=O)N1CC[C@H](n2nc(C#Cc3cc4nc(N(C)C)oc4cc3F)c3c(N)ncnc32)C1 [Example 31, (S)-1-(3-(4-amino-3-((2-(dimethylamino)-6-fluoro-benzo[d]oxazol-5-yl)ethynyl)-1H-pyrazolo[3,4-d]pyrimidin-1-yl)pyrrolidin-1-yl)prop-2-en-1-one]	0.5 to 5	5 to 50
